What was measured:
[1] = test system: MV4-11 cells (FLT3-ITD+/+); test: Inhibition of cell proliferation by MTT experiment, MV4-11; format: cell-based, human; conditions: Homo sapiens, MV4-11; MTT, 72 h; read-out: IC50 value on cell proliferation inhibition, MV4-11 FLT3-ITD+/+
From the text: (§1) MV4-11, MOLM-13 and SET-2 were used to determine the influence of the test compound of the present invention on the activity of cancer cells. MV4-11 and MOLM-13 were human leukemia cell lines from American Type Culture Collection (ATCC), expressing FLT3 receptor and containing FLT3-ITD mutation; and SET-2 was a primary thrombocythemia cell purchased from Chengdu Bowerston Biotechnology Co., Ltd., China, continuously expressing JAK2 receptor and containing the mutation of V617F.
(§2) MV4-11, MOLM-13 and SET-2 cells were filled in a 96-well petri dish with 100 μL IMDM as the medium, containing 10% fetal bovine serum (100 mL/bottle, purchased from Grassland Lvye Bio-Engineering Materials Co., Ltd. and cryopreserved at −20° C.), and with 10,000-15,000 cells in each well. […] In each group, 3-5 replicate wells were set and incubated in 5% CO2 at 37° C. for 72 h. At the endpoint, 20 μL MTT (5 mg/mL) was added to each well, and the cells were incubated for another 1-3 h.
(§3) After the inhibition rate of each concentration of compound on cell proliferation activity was calculated, the dose-response curve and IC50 value were fitted by Graphpad prism software according to the compound treatment concentrations and corresponding inhibition rates.

[2] = test system: MOLM-13 cells (FLT3-ITD-/+); test: Inhibition of cell proliferation by MTT experiment, MOLM-13; format: cell-based, human; conditions: Homo sapiens, MOLM-13; MTT, 72 h; read-out: IC50 value on cell proliferation inhibition, MOLM-13 FLT3-ITD-/+
From the text: as §1, §2, §3

SET-2 cells (JAK2 V617F) = test: Inhibition of cell proliferation by MTT experiment, SET-2; format: cell-based; conditions: Homo sapiens, SET-2; MTT, 72 h; read-out: IC50 value on cell proliferation inhibition, SET-2 (V617F)
From the text: as §1, §2, §3

FLT3 = target: T1, FLT3 (Homo sapiens, UniProt P36888); test: In vitro kinase activity experiment, FLT3; format: biochemical; conditions: 40 min; inhibition rate of enzyme at 500 nM; measured by Eurofins; read-out: Kinase activity @ 500 nM (%) FLT3
T1 construct: purchased Eurofins
T1 sequence (P36888 27-993): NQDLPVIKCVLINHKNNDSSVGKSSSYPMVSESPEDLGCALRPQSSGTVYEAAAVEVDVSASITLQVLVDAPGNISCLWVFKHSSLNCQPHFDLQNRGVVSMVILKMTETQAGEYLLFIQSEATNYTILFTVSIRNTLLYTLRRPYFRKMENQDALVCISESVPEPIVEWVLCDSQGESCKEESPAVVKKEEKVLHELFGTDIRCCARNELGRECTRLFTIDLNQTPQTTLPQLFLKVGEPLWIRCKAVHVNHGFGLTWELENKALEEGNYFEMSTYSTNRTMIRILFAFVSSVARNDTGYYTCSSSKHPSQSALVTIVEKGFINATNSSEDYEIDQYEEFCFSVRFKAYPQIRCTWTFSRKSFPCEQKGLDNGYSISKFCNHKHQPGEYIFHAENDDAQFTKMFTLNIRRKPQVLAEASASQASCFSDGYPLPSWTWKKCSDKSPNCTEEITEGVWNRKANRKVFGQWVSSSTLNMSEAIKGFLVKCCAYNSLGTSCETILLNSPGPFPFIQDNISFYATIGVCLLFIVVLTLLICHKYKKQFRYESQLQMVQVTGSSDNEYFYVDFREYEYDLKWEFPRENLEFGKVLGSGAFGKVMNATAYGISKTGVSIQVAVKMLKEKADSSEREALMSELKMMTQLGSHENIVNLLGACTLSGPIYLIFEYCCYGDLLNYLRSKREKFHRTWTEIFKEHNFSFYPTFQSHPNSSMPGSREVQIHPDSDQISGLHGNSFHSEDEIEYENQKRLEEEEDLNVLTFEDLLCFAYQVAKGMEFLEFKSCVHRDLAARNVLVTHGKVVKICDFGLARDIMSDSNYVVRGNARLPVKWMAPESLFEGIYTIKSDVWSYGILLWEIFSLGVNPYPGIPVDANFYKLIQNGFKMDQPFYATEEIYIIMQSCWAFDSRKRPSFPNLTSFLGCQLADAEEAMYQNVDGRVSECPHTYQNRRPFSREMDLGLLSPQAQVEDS
Procedure: (§4) Buffer solution ([…], pH 7.0, 0.2 mm EDTA, 10 mM mncl2), kinase to be tested, substrate of kinase to be tested, 10 mM magnesium acetate and γ33P-ATP solution, and compounds with different concentrations were added to a reaction tube in turn, then MgATP was added to initiate the enzyme reaction process, and incubated at room temperature for 40 min. Then, the reaction was terminated with 5 μl of […], and 10 μl of the reaction solution was titrated onto the Filtermat A membrane, washed with 75 mM phosphate solution for three times, each time for 5 min., and then washed with methanol once. Finally, the Filtermat A membrane was dried and the scintillation count was carried out.

JAK2 = target: T2, JAK2 (Homo sapiens, UniProt O60674); test: In vitro kinase activity experiment, JAK2; format: biochemical; conditions: inhibition rate of enzyme at 500 nM; measured by Eurofins
T2 construct: purchased Eurofins
T2 sequence (O60674 whole entry): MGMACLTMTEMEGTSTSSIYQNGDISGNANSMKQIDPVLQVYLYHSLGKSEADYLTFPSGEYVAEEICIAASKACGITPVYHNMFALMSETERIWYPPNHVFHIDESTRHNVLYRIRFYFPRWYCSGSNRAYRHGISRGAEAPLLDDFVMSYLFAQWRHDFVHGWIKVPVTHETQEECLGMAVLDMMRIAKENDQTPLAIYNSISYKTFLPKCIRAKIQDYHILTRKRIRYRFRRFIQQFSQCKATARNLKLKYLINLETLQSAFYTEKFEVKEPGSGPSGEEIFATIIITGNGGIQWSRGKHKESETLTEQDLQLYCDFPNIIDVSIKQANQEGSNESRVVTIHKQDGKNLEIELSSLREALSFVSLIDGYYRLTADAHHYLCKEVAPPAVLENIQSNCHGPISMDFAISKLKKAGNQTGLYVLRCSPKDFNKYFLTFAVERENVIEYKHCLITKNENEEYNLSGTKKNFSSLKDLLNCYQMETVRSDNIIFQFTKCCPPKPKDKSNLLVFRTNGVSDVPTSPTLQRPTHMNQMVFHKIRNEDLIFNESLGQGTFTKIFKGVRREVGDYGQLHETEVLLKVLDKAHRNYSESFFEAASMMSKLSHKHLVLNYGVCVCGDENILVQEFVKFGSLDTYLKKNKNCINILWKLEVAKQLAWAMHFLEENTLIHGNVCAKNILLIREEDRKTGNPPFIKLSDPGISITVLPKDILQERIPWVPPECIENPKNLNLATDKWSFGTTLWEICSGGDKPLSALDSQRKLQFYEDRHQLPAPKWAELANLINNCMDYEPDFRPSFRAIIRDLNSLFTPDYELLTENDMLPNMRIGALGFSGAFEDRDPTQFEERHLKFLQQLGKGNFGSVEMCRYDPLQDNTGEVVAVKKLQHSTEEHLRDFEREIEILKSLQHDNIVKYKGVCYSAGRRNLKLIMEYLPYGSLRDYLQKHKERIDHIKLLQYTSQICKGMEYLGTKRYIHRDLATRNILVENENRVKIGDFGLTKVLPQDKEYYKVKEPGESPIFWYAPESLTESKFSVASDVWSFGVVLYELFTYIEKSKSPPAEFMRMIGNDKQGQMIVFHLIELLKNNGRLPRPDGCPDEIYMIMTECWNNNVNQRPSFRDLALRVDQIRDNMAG
Procedure: as §4

IC50 [1] [nM]	IC50 [2] [nM]	inhibition at 0.5 µM (FLT3) [%]	Kinase activity @ 500 nM (%) JAK2 (JAK2) [%]	Compound	IC50 (SET-2 cells (JAK2 V617F)) [nM]
100 to 1000	100 to 1000	40	30	CCCn1cc(-c2nc(Nc3ccc(N4CCN(CC)CC4)cc3F)ncc2F)cn1 [CLJ-8, 5-fluoro-N-(2-fluoro-4-(4-ethylpiperazine-1-yl)phenyl)-4-(1-propyl-1H-pyrazole-4-yl) pyrimidine-2-amine]	> 1000
10 to 100	100 to 1000	20	27	CCCn1cc(-c2nc(Nc3ccc(N4CCN(CC)CC4)c(F)c3)ncc2F)cn1 [CLJ-9, 5-fluoro-N-(3-fluoro-4-(4-ethylpiperazine-1-yl)phenyl)-4-(1-propyl-1H-pyrazole-4-yl) pyrimidine-2-amine]	> 1000
> 1000	100 to 1000	25	37	CCCCn1cc(-c2nc(Nc3ccc(N4CCN(C)CC4)c(F)c3)ncc2F)cn1 [CLJ-10, 5-fluoro-N-(3-fluoro-4-(4-methylpiperazine-1-yl)phenyl)-4-(1-butyl-1H-pyrazol-4-yl) pyrimidine-2-amine]	> 1000
10 to 100	100 to 1000	94	78	CCCN1CCC(n2cc(-c3nc(Nc4ccc(N5CCN(C)CC5)cc4)ncc3F)cn2)CC1 [CLJ-11, 5-fluoro-N-(4-(4-methylpiperazine-1-yl)phenyl)-4-(1-(1-propylpiperidine-4-yl)-1H-pyrazole-4-yl) pyrimidine-2-amine]	> 1000
> 1000	> 1000	20	27	CCCN1CCC(n2cc(-c3nc(Nc4ccc(N5CCN(C)CC5)c(F)c4)ncc3F)cn2)CC1 [CLJ-12, 5-fluoro-N-(3-fluoro-4-(4-methylpiperazine-1-yl)pheny)-4-(1-(1-propylpiperidine-4-yl)-1H-pyrazole-4-yl) pyrimidine-2-amine]	> 1000
10 to 100	100 to 1000	95	89	CCCCN1CCC(n2cc(-c3nc(Nc4ccc(N5CCN(C)CC5)c(F)c4)ncc3F)cn2)CC1 [CLJ-13, 5-fluoro-N-(3-fluoro-4-(4-methylpiperazine-1-yl)phenyl)-4-(1-(1-butylpiperidine-4-yl)-1H-pyrazole-4-yl) pyrimidine-2-amine]	> 1000
10 to 100	100 to 1000	94	93	Cc1c(-c2nc(Nc3ccc(N4CCN(C5CCN(C)CC5)CC4)c(F)c3)ncc2F)cnn1C [CLJ-15]	> 1000
10 to 100	100 to 1000	95	96	CN1CCN(c2ccc(Nc3ncc(F)c(-c4cnn(C5CCCC5)c4)n3)cc2F)CC1 [CLJ-16, 5-fluoro-N-(3-fluoro-4-(4-methylpiperazine-1-yl)phenyl)-4-(1-cyclopentyl-1H-pyrazol-4-yl) pyrimidine-2-amine]	> 1000
10 to 100	100 to 1000	94	90	CCN1CCN(c2ccc(Nc3ncc(F)c(-c4cnn(C5CCCC5)c4)n3)cc2F)CC1 [CLJ-17, 5-fluoro-N-(3-fluoro-4-(4-ethylpiperazine-1-yl)phenyl)-4-(1-cyclopentyl-1H-pyrazole-4-yl) pyrimidine-2-amine]	100 to 1000
10 to 100	100 to 1000	93	93	CN(C)C1CCN(c2ccc(Nc3ncc(F)c(-c4cnn(C5CCCC5)c4)n3)cc2F)CC1 [CLJ-18, 5-fluoro-N-(3-fluoro-4-(4-dimethylaminopiperidine-1-yl)phenyl)-4-(1-cyclopentyl-1H-pyrazole-4-yl) pyrimidine-2-amine]	100 to 1000

The remaining lines, values behind:

Compound	IC50 [1] [nM]	IC50 [2] [nM]	inhibition at 0.5 µM (FLT3) [%]	Kinase activity @ 500 nM (%) JAK2 (JAK2) [%]	IC50 (SET-2 cells (JAK2 V617F)) [nM]
CC(C)N1CCN(Cc2ccc(Nc3ncc(F)c(-c4ccc(CN5CCCC5)o4)n3)nc2)CC1 [CLJ-1, 5-fluoro-N-(5-((4-isopropylpiperazine-1-yl)methyl)pyridine-2-yl)-4-(5-(pyrrolidine-1-ylmethyl)furan-2-yl) pyrimidine-2-amine]	100 to 1000	100 to 1000	33	46	> 1000
CCN1CCN(c2ccc(Nc3ncc(F)c(-c4ccc(CN5CCCC5)o4)n3)nc2)CC1 [CLJ-2]	100 to 1000	100 to 1000	25	30	> 1000
CC(C)N1CCN(Cc2ccc(Nc3ncc(F)c(-c4ccc(CN5CCc6ccccc65)o4)n3)nc2)CC1 [CLJ-3, 5-fluoro-4-(5-(dihydroindole-1-ylmethyl)furan-2-yl)-N-(5-((4-isopropylpiperazine-1-yl)methyl)pyridine-2-yl) pyrimidine-2-amine]	100 to 1000	100 to 1000	29	45	> 1000
CCCn1cc(-c2nc(Nc3cc(CN4CCCC(C)C4)c(F)cn3)ncc2F)cn1 (stereo not shown) [CLJ-4, 5-fluoro-N-(5-fluoro-4-((3-methylpiperidine-1-yl)methyl)pyridine-2-yl)-4-(1-propyl-1H-pyrazole-4-yl) pyrimidine-2-amine]	100 to 1000	100 to 1000	28	38	> 1000
CCCn1cc(-c2nc(Nc3cc(CN4CCN(CC)CC4)c(F)cn3)ncc2F)cn1 [CLJ-5, 5-fluoro-N-(5-fluoro-4-((4-ethylpiperazine-1-yl)methyl)pyridine-2-yl)-4-(1-propyl-1H-pyrazole-4-yl) pyrimidine-2-amine]	100 to 1000	100 to 1000	34	40	> 1000
CCCn1cc(-c2nc(Nc3ccc(N4CCN(C)CC4)cc3F)ncc2F)cn1 [CLJ-6, 5-fluoro-N-(2-fluoro-4-(4-methylpiperazine-1-yl)phenyl)-4-(1-propyl-1H-pyrazol-4-yl) pyrimidine-2-amine]	> 1000	> 1000	34	30	> 1000
CCCn1cc(-c2nc(Nc3ccc(N4CCN(C)CC4)c(F)c3)ncc2F)cn1 [CLJ-7, 5-fluoro-N-(3-fluoro-4-(4-methylpiperazine-1-yl)phenyl)-4-(1-propyl-1H-pyrazol-4-yl) pyrimidine-2-amine]	100 to 1000	100 to 1000	28	38	> 1000
